Measured values from a compilation of properties of binary mixtures (doi:10.1016/j.molliq.2020.114841).

Assay: xn = mol fraction of the nth substance listed
Details: 101.3 kPa

CS(C)=O + CCOCC[n+]1ccn(CCC#N)c1.O=S(=O)([N-]S(=O)(=O)C(F)(F)F)C(F)(F)F
x2 = 0
Details	electrical conductivity [S/m]	viscosity [mPa·s]
293.15 K	0.0006	2.48
303.15 K	0.0009	2.025
313.15 K	0.0012	1.619
323.15 K	0.0015	1.433

CS(C)=O + COCCOCCn1cc[n+](CCC#N)c1.O=S(=O)([N-]S(=O)(=O)C(F)(F)F)C(F)(F)F
x2 = 0
Details	electrical conductivity [S/m]	viscosity [mPa·s]
293.15 K	0.0006	2.479
303.15 K	0.0009	2.025
313.15 K	0.0012	1.619
323.15 K	0.0015	1.433

CCOCC[n+]1ccn(CCC#N)c1.O=S(=O)([N-]S(=O)(=O)C(F)(F)F)C(F)(F)F + CS(C)=O
Details	electrical conductivity, 293.15 K [S/m]	electrical conductivity, 303.15 K [S/m]	electrical conductivity, 313.15 K [S/m]	electrical conductivity, 323.15 K [S/m]	viscosity, 293.15 K [mPa·s]	viscosity, 303.15 K [mPa·s]	viscosity, 313.15 K [mPa·s]	viscosity, 323.15 K [mPa·s]
x1 = 0.0989	0.0011	0.0013	0.0016	–	8.21	5.53	4.312	–
x1 = 0.1981	0.004	0.0048	0.0061	–	10.18	7.07	5.24	–
x1 = 0.2776	0.0096	0.0117	0.0152	0.0204	16.76	11.64	8.48	6.42
x1 = 0.3971	0.0179	0.0218	0.0282	–	25.7	17	12.01	–
x1 = 0.5029	0.0284	0.0351	0.0457	–	40.9	28	18.99	–
x1 = 0.597	–	0.0477	0.063	0.0866	–	38.6	26.33	18.01
x1 = 0.721	0.0472	–	0.0763	–	72.2	–	28.66	–
x1 = 0.798	–	0.0985	0.13	0.188	–	57.8	36.8	28.6
x1 = 0.89	–	0.0843	0.119	0.165	–	124.2	78.2	56.6
x1 = 1	0.057	0.0705	0.0957	0.14	401	235.6	146.2	105

COCCOCCn1cc[n+](CCC#N)c1.O=S(=O)([N-]S(=O)(=O)C(F)(F)F)C(F)(F)F + CS(C)=O
Details	electrical conductivity, 293.15 K [S/m]	electrical conductivity, 303.15 K [S/m]	electrical conductivity, 313.15 K [S/m]	electrical conductivity, 323.15 K [S/m]	viscosity, 293.15 K [mPa·s]	viscosity, 303.15 K [mPa·s]	viscosity, 313.15 K [mPa·s]	viscosity, 323.15 K [mPa·s]
x1 = 0.0989	0.002	0.0023	0.0028	0.0034	6.1	4.244	3.145	2.453
x1 = 0.1981	–	0.0077	0.0094	–	–	5.65	4.14	–
x1 = 0.2776	0.0093	–	0.0144	0.0193	13.52	–	6.42	5
x1 = 0.3971	0.0202	0.0243	0.031	0.043	19.5	13.05	8.55	6.4
x1 = 0.5029	0.0321	–	0.0518	0.0698	39.8	–	16.92	12.64
x1 = 0.597	0.0411	0.051	0.0672	0.0919	53.9	33.04	22.38	16.15
x1 = 0.721	0.0589	0.0732	0.0977	0.134	64.3	36.5	24.89	17.98
x1 = 0.798	0.0885	0.111	–	–	90.8	49.7	–	–
x1 = 0.89	0.0746	–	–	0.175	145.2	–	–	37.5
x1 = 1	0.0654	0.0831	0.112	0.158	296	169	103.2	74.6
